{"source": "patent US12685716B1", "about": "(priority 2022, dated 2026)", "test_system": "subject with AF/AFL", "test": "Initiation of IV sotalol followed by first oral dose and same-day discharge (case Examples 1-12)", "format": "in vivo, human", "experimental": "• 1. After admission, obtain baseline parameters including QTc interval, HR, BP. • 2. […] Monitor QTc interval, HR, BP every 15 minutes during infusion. • 4. Administer first oral dose at the appropriate time based on renal function. For CrCl≥60 mL/min, oral administration time is planned 4 hours following the completion of IV infusion. For CrCl=30-59 mL/min, oral administration time is planned 6 hours following the completion of IV infusion. • 5. Obtain monitoring parameters including QTc interval, HR, BP at about 2 hours after oral administration. • 6. […] At arrival, baseline labs were obtained, and the subject was placed on continuous electrocardiogra monitoring. […] At arrival, baseline labs were obtained, and the subject was placed on continuous electrocardiography monitoring. […] At arrival, baseline labs were obtained, and the subject was placed on continuous electrocardiography monitoring. […] At arrival, baseline labs were obtained, and the subject was placed on continuous electrocardiography monitoring. […] At arrival, baseline labs were obtained, and the subject was placed on continuous electrocardiography monitoring. […] At arrival, baseline labs were obtained, and the subject was placed on continuous electrocardiography monitoring. […] At arrival, baseline labs were obtained, and the subject was placed on continuous electrocardiography monitoring. […] At arrival, baseline labs were obtained, and the subject was placed on continuous electrocardiography monitoring. […] At arrival, baseline labs were obtained, and the subject was placed on continuous electrocardiography monitoring. […] At arrival, baseline labs were obtained, and the subject was placed on continuous electrocardiography monitoring. […] At arrival, baseline labs were obtained, and the subject was placed on continuous electrocardiography monitoring. […] At arrival, baseline labs were obtained, and the subject was placed on continuous electrocardiography monitoring.", "key": {"[1]": {"settings": "Example 1: IV 82.5 mg, DCCV, PO 80 mg 4 h after IV completion"}, "[2]": {"settings": "Example 2: IV 82.5 mg, PO 80 mg 4 h after IV completion"}, "[3]": {"settings": "Example 3: IV 75 mg, DCCV, PO 80 mg 5.5 h after IV completion"}, "[4]": {"settings": "Example 4: IV 75 mg, DCCV, PO 80 mg 6.5 h after IV completion"}, "[5]": {"settings": "Example 5: IV 75 mg, DCCV, PO 80 mg 5 h after IV completion"}, "[6]": {"settings": "Example 6: IV 75 mg, DCCV, PO 80 mg 5.5 h after IV completion"}, "[7]": {"settings": "Example 7: IV 60 mg, PO 120 mg 5 h after IV completion, second DCCV"}, "[8]": {"settings": "Example 8: IV 82.5 mg, DCCV, PO 80 mg 4 h after IV completion"}, "[9]": {"settings": "Example 9: IV 90 mg, DCCV, PO 120 mg 3.5 h after IV completion"}, "[10]": {"settings": "Example 10: IV 75 mg, DCCV, PO 80 mg 6 h after IV completion"}, "[11]": {"settings": "Example 11: IV 75 mg, DCCV, PO 80 mg 6 h after IV completion"}, "[12]": {"settings": "Example 12: IV 75 mg, DCCV, PO 80 mg 6 h after IV completion"}}, "data": [{"smiles": "CC(C)NCC(O)c1ccc(NS(C)(=O)=O)cc1", "note": "(stereo not shown) [sotalol, d,1-sotalol]", "values": [{"measurement": "Monitoring parameters (QTc, HR, BP) two hours after oral administration", "setting": "[1]", "value": "within normal limits"}, {"measurement": "Rhythm two hours after oral administration", "setting": "[1]", "value": "remained in NSR"}, {"measurement": "Rhythm conversion after IV sotalol infusion", "setting": "Example 1: person, persistent AF/AFL, IV 82.5 mg over 1 h, then DCCV", "value": "converted from AF to NSR"}, {"measurement": "Monitoring parameters (QTc, HR, BP) two hours after oral administration", "setting": "[2]", "value": "within normal limits"}, {"measurement": "Rhythm two hours after oral administration", "setting": "[2]", "value": "remained in NSR"}, {"measurement": "Rhythm conversion after IV sotalol infusion", "setting": "Example 2: person, paroxysmal AF and PVCs, IV 82.5 mg over 1 h, no DCCV", "value": "converted from AF to NSR"}, {"measurement": "Monitoring parameters including QTc two hours after oral administration", "setting": "[3]", "value": "within normal limits"}, {"measurement": "Rhythm two hours after oral administration", "setting": "[3]", "value": "remained in NSR"}, {"measurement": "Rhythm conversion after IV sotalol infusion", "setting": "Example 3: person, persistent AF, CrCl 30 mL/min, IV 75 mg over 1 h, then DCCV", "value": "converted from AF to NSR"}, {"measurement": "Monitoring parameters including QTc two hours after oral administration", "setting": "[4]", "value": "within normal limits"}, {"measurement": "Rhythm two hours after oral administration", "setting": "[4]", "value": "remained in NSR"}, {"measurement": "Rhythm conversion after IV sotalol infusion", "setting": "Example 4: person, persistent AF, CrCl 38 mL/min, IV 75 mg over 1 h, then DCCV", "value": "converted from AF to NSR"}, {"measurement": "Monitoring parameters including QTc two hours after oral administration", "setting": "[5]", "value": "within normal limits"}, {"measurement": "Rhythm two hours after oral administration", "setting": "[5]", "value": "remained in NSR"}, {"measurement": "Rhythm conversion after IV sotalol infusion", "setting": "Example 5: person, persistent AF, CrCl 37 mL/min, IV 75 mg over 1 h, then DCCV", "value": "converted from AF to NSR"}, {"measurement": "Monitoring parameters including QTc two hours after oral administration", "setting": "[6]", "value": "within normal limits"}, {"measurement": "Rhythm two hours after oral administration", "setting": "[6]", "value": "remained in NSR"}, {"measurement": "Rhythm conversion after IV sotalol infusion", "setting": "Example 6: person, PVCs and paroxysmal AF, CrCl 41 mL/min, IV 75 mg over 1 h, then DCCV", "value": "converting the subject from AF to NSR"}, {"measurement": "Monitoring parameters (QTc, HR, BP) two hours after oral administration", "setting": "[7]", "value": "within normal limits"}, {"measurement": "Rhythm two hours after oral administration", "setting": "[7]", "value": "remained in NSR"}, {"measurement": "Rhythm conversion after first oral dose and second DCCV", "setting": "Example 7: IV 60 mg, PO 120 mg 5 h after IV completion, then second DCCV", "value": "converted from AF to NSR"}, {"measurement": "Rhythm conversion after IV sotalol infusion and first DCCV attempt", "setting": "Example 7: person, persistent AF, IV 60 mg over 1 h, then first DCCV", "value": "failed to convert"}, {"measurement": "Monitoring parameters (QTc, HR, BP) two hours after oral administration", "setting": "[8]", "value": "within normal limits"}, {"measurement": "Rhythm two hours after oral administration", "setting": "[8]", "value": "remained in NSR"}, {"measurement": "Rhythm conversion after IV sotalol infusion", "setting": "Example 8: person, persistent AF, IV 82.5 mg over 1 h, then DCCV", "value": "converted from AF to NSR"}, {"measurement": "Monitoring parameters (QTc, HR, BP) two hours after oral administration", "setting": "[9]", "value": "within normal limits"}, {"measurement": "Rhythm two hours after oral administration", "setting": "[9]", "value": "remained in NSR"}, {"measurement": "Rhythm conversion after IV sotalol infusion", "setting": "Example 9: person, persistent AF, IV 90 mg over 1 h, then DCCV", "value": "converting the subject from AF to NSR"}, {"measurement": "Monitoring parameters (QTc, HR, BP) two hours after oral administration", "setting": "[10]", "value": "within normal limits"}, {"measurement": "Rhythm two hours after oral administration", "setting": "[10]", "value": "remained in NSR"}, {"measurement": "Rhythm conversion after IV sotalol infusion", "setting": "Example 10: person, persistent AF, CrCl 56 mL/min, IV 75 mg over 1 h, then DCCV", "value": "converted from AF to NSR"}, {"measurement": "Monitoring parameters (QTc, HR, BP) two hours after oral administration", "setting": "[11]", "value": "within normal limits"}, {"measurement": "Rhythm two hours after oral administration", "setting": "[11]", "value": "remained in NSR"}, {"measurement": "Rhythm conversion after IV sotalol infusion", "setting": "Example 11: person, persistent AF, CrCl 50 mL/min, IV 75 mg over 1 h, then DCCV", "value": "converted from AF to NSR"}, {"measurement": "Monitoring parameters (QTc, HR, BP) two hours after oral administration", "setting": "[12]", "value": "within normal limits"}, {"measurement": "Rhythm two hours after oral administration", "setting": "[12]", "value": "remained in NSR"}, {"measurement": "Rhythm conversion after IV sotalol infusion", "setting": "Example 12: person, PVCs and persistent AF, CrCl 53 mL/min, IV 75 mg over 1 h, then DCCV", "value": "converted from AF to NSR"}]}]}
